Values joined by “and” are separate entries in the source; they are usually repeats but may differ in a detail not shown here. Identical values can stand only once.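 Following 48 hours of exposure in 96-well plates, responses at five concentrations were used to interpolate endpoints linearly. GI50 = concentration required for 50% inhibition of growth. Definition used: TGI = concentration required for complete inhibition of growth.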
Key:
Test in all cases: inhibition of tumour cell growth, NCI panel, 48 h
LXFL 529 NSCLC = system: LXFL 529 NSCLC
DMS 114 small cell lung = system: DMS 114 small cell lung
KM20L2 colon = system: KM20L2 colon
M19-MEL melanoma = system: M19-MEL melanoma
MDA-MB-435 = system: MDA-MB-435
NCI/ADR-RES ovarian = system: NCI/ADR-RES ovarian
MDA-MB-231 breast = system: MDA-MB-231 breast
T-47D breast = system: T-47D breast
MCF7 breast = system: MCF7 breast
BT-549 breast = system: BT-549 breast

SMILES | TGI (LXFL 529 NSCLC) [µM] | TGI (DMS 114 small cell lung) [µM] | TGI (KM20L2 colon) [µM] | TGI (M19-MEL melanoma) [µM] | further results
COC(=O)CCC(NC(=S)N/N=C(\C)c1ccccn1)C(=O)OC (configuration not stated) | > 100 | 75.8 | > 100 | > 100 | –
C=C1C(=O)OC2CCCCC3OC3C12 (configuration not stated) | 20.2 | – | 22.8 | 35.1 | –
COC(=O)C(C(=O)C(=O)Nc1cccc(O)c1)c1nc2ccc(Cl)cc2[nH]c1=O (configuration not stated) | > 100 | > 100 | > 100 | > 100 | –
O=C(c1cc(=O)c2ccc(O)cc2o1)c1ccc(Cl)cc1Cl | – | > 64 | > 100 | > 100 | –
CCOc1ccccc1NC(=O)C(=O)CC(=O)C1=C(C)Nc2ccccc2S1 | > 100 | – | > 100 | > 100 | –
O=[N+]([O-])c1cccc(C2SCc3nc4ccccc4n32)c1 (configuration not stated) | > 100 | > 100 | > 100 | > 100 | –
CC(C)c1cc(C(C)C)c(S(=O)(=O)NN)c(C(C)C)c1 | – | > 100 | > 100 | > 100 | –
CCOP(=O)(CCP(=O)(OCC)OCC)OCC.C[CH2][Sn]([Cl])([Cl])[CH2]C | 22.8 | 34.5 | > 100 | > 60.4 | GI50 (LXFL 529 NSCLC): 10.7 µM; GI50 (MDA-MB-435): > 100 µM; TGI (MDA-MB-435): > 100 µM; GI50 (DMS 114 small cell lung): 16.7 µM; GI50 (NCI/ADR-RES ovarian): > 100 µM; TGI (NCI/ADR-RES ovarian): > 100 µM; GI50 (MDA-MB-231 breast): 25 µM; TGI (MDA-MB-231 breast): 92.2 µM; GI50 (KM20L2 colon): > 68.2 µM; GI50 (T-47D breast): 18.5 µM; TGI (T-47D breast): 40.9 µM; GI50 (M19-MEL melanoma): 24.8 µM; GI50 (MCF7 breast): 21.6 µM; TGI (MCF7 breast): 44.4 µM; GI50 (BT-549 breast): 17.8 µM; TGI (BT-549 breast): 33.8 µM
C/C=C/C=N/N(c1nnc(-c2ccccc2)c(-c2ccccc2)n1)S(=O)(=O)c1ccc(C)cc1 | 19.3 | 37.6 | 26.1 | 36.3 | –
CC(=O)OC1(C#N)CC2OC1C1C2N1C(=O)c1ccccc1 (configuration not stated) | > 100 | > 100 | > 100 | > 100 | –
C/C(CN1C(=O)c2ccccc2C1=O)=N\NS(=O)(=O)c1ccccc1 | > 100 | > 100 | > 100 | > 100 | –
CCOC(=O)C1=C(Nc2ccccc2)OC/C1=N\NC(=O)Cc1ccccc1 | > 50 | > 50 | > 50 | > 50 | –
NC(=S)N/N=C(/CC(=O)c1ccc([N+](=O)[O-])cc1)C(=O)Nc1ncc([N+](=O)[O-])s1 | > 100 | > 100 | > 100 | > 100 | –
Cc1cc2c3ccccc3n(C)c2c2c1C(=O)c1ccccc1C2=O | 35.5 | 46 | – | 10.3 | –
O=C(c1cc2ccccc2[nH]1)C(O)(c1cc2ccccc2[nH]1)c1cc2ccccc2[nH]1 | > 246 | > 246 | > 246 | – | –
Cc1c2ccccc2c(C)c2c3c(ccc12)C(=O)C=CC3=O | 31.5 | 25.8 | > 100 | 35.8 | –
O=C(CCc1nnc2s/c(=C\c3ccccc3)c(=O)n12)Nc1cc(Cl)ccc1Cl | > 100 | > 100 | > 100 | > 100 | –
O=C(CC(=O)N1N=C(n2ccc3ccccc32)CC1c1ccccc1)Nc1cccc(Cl)c1 (configuration not stated) | > 100 | – | > 100 | > 100 | –
Cc1cc(C)nc(NS(=O)(=O)c2ccc(Nc3c4ccccc4nc4c(C(=O)NCCN(C)C)ccc(Cl)c34)cc2)n1 | 4.06 | 3.94 | 12 | 7.84 | –
OC(c1ccccc1)(c1ccccc1)c1ccccn1 | > 100 | > 100 | > 100 | > 100 | –

SMILES | TGI (LXFL 529 NSCLC) [µM] | TGI (DMS 114 small cell lung) [µM] | TGI (KM20L2 colon) [µM] | TGI (M19-MEL melanoma) [µM] | further results
C/C(=N/O)C1CC=C(S(=O)(=O)c2ccccc2)C1 (configuration not stated) | > 100 | – | > 100 | > 100 | –
C=CCC(C(=O)OC)C1(C(=O)OC)c2[nH]c3ccccc3c2CCN1Cc1ccccc1 (configuration not stated) | – | > 100 | > 100 | > 100 | –
CCC(=O)C1=C(OC(C)=O)C2Cc3c(n(C)c4ccccc34)C(C1)N2C (configuration not stated) | > 100 | 58.7 | > 100 | > 100 | –
COc1ccc(/C=C/c2cc(OC)c(O[Si](C)(C)C(C)(C)C)c(OC)c2)cc1 | > 100 | > 100 | > 100 | > 100 | –
CC(=O)NNc1nc(C)c(C(=O)NNC(=O)C(=O)Nc2ccc(C)c(C)c2)s1 | > 100 | > 100 | > 100 | > 100 | –
C/C(=N\NC(=O)CC(=O)Nc1ccc(C)cc1)c1cc2ccccc2oc1=O | – | > 100 | > 100 | > 100 | –
COc1ccc(/C=C2\N=C(c3ccccc3)OC2=O)c(OCc2ccccc2)c1 | > 100 | 92.3 | > 100 | > 100 | –
CCCCCCCCCCCCCCCCOC(=O)C(C(=O)OCCCCCCCCCCCCCCCC)[N+](C)(C)CCOC(C)=O | 37.2 | 41.8 | 50 | 30.4 | –
Cc1ccc(-n2c3c(c4c(CN5CCCCC5)c(O)ccc42)CCc2ccccc2C3=O)cc1 | – | – | – | – | GI50 (MDA-MB-435): > 100 µM; TGI (MDA-MB-435): > 100 µM; GI50 (NCI/ADR-RES ovarian): 71.2 µM; TGI (NCI/ADR-RES ovarian): > 100 µM; GI50 (MDA-MB-231 breast): 30.7 µM; TGI (MDA-MB-231 breast): > 100 µM; GI50 (T-47D breast): > 100 µM; TGI (T-47D breast): > 100 µM; GI50 (MCF7 breast): > 100 µM; TGI (MCF7 breast): > 100 µM; GI50 (BT-549 breast): > 100 µM; TGI (BT-549 breast): > 100 µM
Nc1nc(N)c2cc(CNc3ccc(Cl)c(Cl)c3)ccc2n1 | – | – | – | – | GI50 (MDA-MB-435): 0.38 µM; TGI (MDA-MB-435): 1.78 µM; GI50 (NCI/ADR-RES ovarian): 0.802 µM; TGI (NCI/ADR-RES ovarian): 3.25 µM; GI50 (MDA-MB-231 breast): 0.803 µM; TGI (MDA-MB-231 breast): 2.16 µM; GI50 (T-47D breast): 1.54 µM; TGI (T-47D breast): 2.9 µM; GI50 (MCF7 breast): 0.775 µM; TGI (MCF7 breast): 2.05 µM; GI50 (BT-549 breast): 1.4 µM; TGI (BT-549 breast): 2.78 µM
N=C(N)n1ncc(Cl)c(Cl)c1=O | 3.31 | 3.66 | 19.3 | 3.77 | –
CCOC(=O)CC(=O)ON(C)C(=O)Cc1ccccc1 | > 100 | > 100 | > 100 | > 100 | –
CC1=C(C(=O)Nc2cccc(C(F)(F)F)c2)C(c2ccc(O)cc2)C(C(=O)Nc2cccc(C(F)(F)F)c2)=C(C)N1 | 55.3 | 45.8 | 54.6 | 40.3 | –
Cc1ccc2nc3c(Cl)cc(=O)cc-3sc2c1 | 63.1 | 48.1 | – | 36 | –
COc1ccc(/C=C/C(=O)c2sc(N)nc2C)cc1 | – | > 100 | > 100 | > 100 | –
CCc1cccc(C(C)CC)c1N=C(NC(=O)c1ccccc1C(=O)NC(=Nc1c(CC)cccc1C(C)CC)SC)SC (configuration not stated) | > 100 | – | 79.6 | > 100 | –
N/C(=N\O)c1ncc(-c2ccc(C(F)(F)F)cc2)c(NC2CCCCCC2)n1 | – | – | – | – | GI50 (MDA-MB-435): 3.76 µM; TGI (MDA-MB-435): 17 µM; GI50 (NCI/ADR-RES ovarian): 4.41 µM and 0.593 µM; TGI (NCI/ADR-RES ovarian): 13.4 µM; GI50 (MDA-MB-231 breast): 3.96 µM; TGI (MDA-MB-231 breast): 19.3 µM; GI50 (T-47D breast): 6.89 µM and 3.59 µM; TGI (T-47D breast): 16.8 µM; GI50 (MCF7 breast): 4.65 µM and 1.43 µM; TGI (MCF7 breast): 12.3 µM; GI50 (BT-549 breast): 4.54 µM; TGI (BT-549 breast): 18.2 µM
Nc1nnc2nc(CC(=O)/C=C/c3ccccc3)c(=O)[nH]n12 | > 100 | > 100 | > 100 | > 100 | –
CCSC1(SCC)CCN(C=NC(C)(C)C)C1 | > 100 | > 100 | > 100 | > 100 | –
COc1c(OC(C)=O)cc2c(OC(C)=O)c1CC(C)CC(OC)C(O)C(C)/C=C(\C)C(OC(N)=O)C(OC)/C=C\C=C(/C)C(=O)N2 (configuration not stated) | > 100 | > 100 | > 100 | > 100 | –
